From patent US8815270B2, “Methods and compositions for treating ectoparasite infestation” (Piedmont Pharmaceuticals, LLC, priority 2002, dated 2014)

Test system: adult body louse, Pediculous humanus humanus
Protocol: In this embodiment, the effectiveness of pediculicidal materials in the formulation of Example 1 is examined against the adult body louse, Pediculous humanus humanus. But this procedure can be used to test the effectiveness of a composition against the head louse, fleas, ticks, or any ectoparasite. In the following description, “morbid” means that the louse is unable to move towards heat 1 h after treatment. The parasite is sick but not necessarily dying, and may recover to resume normal behavior within 24 hours. By “moribund” is meant the parasite is unable to move towards heat (and therefore food) 24 hours after treatment and is dying.
Four replicates of 25 lice each, plus five control replicates were examined. A plastic or glass vial, screened at the bottom with 20-mesh was used as the dipping vessel. A plunger, made from a plastic rod, and a circular screen was fitted inside the vial.
25 adult lice of mixed sexes were placed in the bottom of a test container. A screened plunger was inserted to keep the lice from floating to the surface. The pediculicide material to be tested was placed in a 100-ml beaker and the beaker introduced into a waterbath maintained at 32° C. The test container was placed into the pediculicide in the 100-ml beaker and the lice kept under the pediculicide for 1, 4 or 10 minutes. The test container was removed at end of the desired dipping period. […]

SMILES: CCCCCCCCCCCCCC(=O)OC(C)C [isopropyl myristate, 1-methylethyltetradecanoate]
- lice killed (mortality) after 1 hour: about 82%
- mortality of lice after 24 hours: 100%
